From patent US11465987B2, “Compounds for treatment of cancer” (ONCTERNAL THERAPEUTICS, INC., priority 2012, dated 2022)
Like-named read-outs stand apart in the source and are kept apart here.

Legend:
[1] = test system: melanoma and prostate cancer cell lines; test: Antiproliferative activity summarised over the cell line panel (range or average); type: cell-based; settings: for antiproliferative activity in words: Tables 1-3
[2] = test system: PC-3 human prostate cancer cell line; test: cells; settings: Homo sapiens
From the text: Cells were stained with SRB solution.

[3] = read-out: IC50 PC-3, SRB assay, prostate cancer PC-3
[4] = Tables 1-2, read-out: IC50 (range or bound over tested cell lines)
[5] = range over prostate cancer cell lines, read-out: IC50 range against prostate cancer cells
[6] = read-out: IC50 ± SEM, PC-3, Table 13
[7] = Tables 11-13, read-out: IC50 (average of all seven cell lines)

## COc1cc(C(=O)c2cccc(-c3ccccc3)c2)cc(OC)c1OC [1a, Biphenyl-3-yl(3,4,5-trimethoxyphenyl)methanone]
[1]
  antiproliferative activity in words: hundreds of nanomolar range

## COc1cc(C(=O)c2cc(-c3ccccc3)ncn2)cc(OC)c1OC [1b, (6-Phenylpyrimidin-4-yl)(3,4,5-trimethoxyphenyl)methanone]
[2]; [3]
  IC50: 8.3 µM
[1]; [4]
  IC50: 3.7 to 8.3 µM

## COc1cc(C(=O)c2ccc(-c3ccccc3)o2)cc(OC)c1OC [1d, (5-Phenylfuran-2-yl)(3,4,5-trimethoxyphenyl)methanone]
[2]; [3]
  IC50: 0.021 µM
[1]; [5]
  IC50: 0.012 to 0.035 µM

## COc1cc(C(=O)c2cnc(-c3ccccc3)s2)cc(OC)c1OC [1e, (2-Phenylthiazol-5-yl)(3,4,5-trimethoxyphenyl)methanone]
[1]; [4]
  IC50: > 10 µM

## COc1cc(C(=O)c2csc(-c3ccccc3)c2)cc(OC)c1OC [1f, (5-Phenylthiophen-3-yl)(3,4,5-trimethoxyphenyl)methanone]
[2]; [3]
  IC50: 0.012 µM
[1]; [5]
  IC50: 0.012 to 0.035 µM

## COc1cc(C(=O)N2CCC(c3ccccc3)CC2)cc(OC)c1OC [1g, (4-Phenylpiperidin-1-yl)(3,4,5-trimethoxyphenyl)methanone]
[1]; [4]
  IC50: > 20 µM

## COc1cc(C(=O)c2cc(-c3ccccc3)on2)cc(OC)c1OC [1i, (5-Phenylisoxazol-3-yl)(3,4,5-trimethoxyphenyl)methanone]
[1]; [4]
  IC50: > 10 µM

## COc1cc(C(O)c2csc(-c3ccccc3)n2)cc(OC)c1OC (stereo not shown) [2b, (2-Phenylthiazol-4-yl)(3,4,5-trimethoxyphenyl)methanol]
[2]; [3]
  IC50: > 10 µM
[1]
  antiproliferative activity in words: inactive

## COc1cc(/C(=N/O)c2csc(-c3ccccc3)n2)cc(OC)c1OC [2e-cis, (Z)-(2-Phenylthiazol-4-yl)(3,4,5-trimethoxyphenyl)methanone oxime]
[2]; [3]
  IC50: 0.12 µM
[1]; 2e-cis vs 2e-trans
  fold more activity than anti-isomer: 10 fold
[1]; [4]
  IC50: 0.1 to 0.3 µM

## COc1cc(/C(=N\O)c2csc(-c3ccccc3)n2)cc(OC)c1OC [2e-trans, (E)-(2-Phenylthiazol-4-yl)(3,4,5-trimethoxyphenyl)methanone oxime]
[2]; [3]
  IC50: > 10 µM
[1]; [4]
  IC50: > 10 µM

## COc1cc(C(=O)c2csc(-c3ccc(CN(C)C)cc3)n2)cc(OC)c1OC.Cl [2u, (2-(4-((Dimethylamino)methyl)phenyl)thiazol-4-yl)(3,4,5-trimethoxyphenyl)methanone hydrochloride]
[2]; [3]
  IC50: > 10 µM
[1]
  antiproliferative activity in words: abrogated activity

## COc1cc(C(=O)c2cn(S(=O)(=O)c3ccccc3)c(-c3cc(OC)c(OC)c(OC)c3)n2)cc(OC)c1OC [11ea, (1-(phenylsulfonyl)-2-(3,4,5-trimethoxyphenyl)-1H-imidazol-4-yl)(3,4,5-trimethoxyphenyl)methanone]
[2]; [6]
  IC50: > 10 µM
[1]; [7]
  IC50: 1 to 50 µM

## COc1cc(-c2nc(C(=O)c3ccc(F)cc3)cn2S(=O)(=O)c2ccccc2)cc(OC)c1OC [11eb, (4-fluorophenyl)(1-(phenylsulfonyl)-2-(3,4,5-trimethoxyphenyl)-1H-imidazol-4-yl)methanone]
[2]; [6]
  IC50: > 10 µM
[1]; [7]
  IC50: 1 to 50 µM

## COc1ccc(-c2nc(C(=O)c3ccc(F)cc3)cn2S(=O)(=O)c2ccccc2)cc1OC [11hb, (2-(3,4-dimethoxyphenyl)-1-(phenylsulfonyl)-1H-imidazol-4-yl)(4-fluorophenyl)methanone]
[2]; [6]
  IC50: 10 µM
[1]; [7]
  IC50: 1 to 50 µM

## COc1cc(-c2nc(C(=O)c3ccc(F)cc3)c[nH]2)cc(OC)c1OC [12eb]
[1]; [7]
  IC50: 1 to 50 µM

## COc1cc(C(=O)[C@H]2COC(c3ccccc3)=N2)cc(OC)c1OC [35a, (2R)-(2-Phenyl-4,5-dihydro-oxazol-4-yl)-(3,4,5-trimethoxy-phenyl)-methanone]
[1]
  antiproliferative activity in words: hundreds of nanomolar range

## COc1cc(C(=O)c2coc(-c3ccccc3)n2)cc(OC)c1OC [36a, (2-Phenyl-oxazol-4-yl)-(3,4,5-trimethoxy-phenyl)-methanone]
[1]
  antiproliferative activity in words: hundreds of nanomolar range
